Measured values taken from patent US20040053234A1, “Polynucletides that control delta-6 desaturase genes and methods for identifying compounds for modulating delta-6 desaturase” (priority 2000, published 2004).

Test system: delta-6-desaturase
Assay: Inhibition of delta-6-desaturase in rat liver microsomes incubated with [1-14C]-dihomogammalinolenic acid
Assay type: biochemical
Conditions: for % of inhibition: substrate [1-14C]-dihomogammalinolenic acid
Procedure: Wistar rats under light halothane (15% in mineral oil) anesthesia were sacrificed by exsanguination during periods of high enzyme activity. Livers are immediately rinsed with cold 0.9% NaCl solution, weighed and minced with scissors. All procedures are performed at 4° C. unless specified otherwise. Livers are homogenized in a solution (1:3 w/v) containing 0.25 M sucrose, 62 mM potassium phosphate buffer (pH 7.0), 0.15 M KCl, 1.5 mM N-acetylcysteine, 5 mM MgCl2, and 0.1 mM EDTA using 4 strokes of a Potter-Elvehjem tissue homogenizer. The homogenate is centrifuged at 10,400×g for 20 min to eliminate mitochondria and cellular debris. The supernatant is filtered through a 3-layer cheesecloth and centrifuged at 105,000×g for 60 min. The microsomal pellet is gently resuspended in the same homogenization solution with a small glass/teflon homogenizer and stored at −70° C. The absence of mitochondrial contamination is enzymatically assessed. The protein concentration is measured using bovine serum albumin as the standard.
Reactions are started by adding 2 mg of microsomal protein to pre-incubated tubes containing 0.20 μCi of the substrate fatty acid (DGLA) at a final concentration of 33.3 μM in 1.5 ml of homogenization solution, containing NaF (42 mM), niacinamide (0.33 mM), ATP (1.57 mM), NADH (1.0 mM), coenzyme A (0.09 mM) and a range of concentrations of the enzyme modulators. N-propyl gallate was added to the incubation medium to a final concentration of 0.02-0.32 mM. The tubes are vortexed vigorously and after 15 min incubation in a shaking water bath (37° C.), the reactions are stopped and fatty acids are analyzed as described in herein. Alternatively, fatty acid methyl esters are analyzed by capillary column gas chromatography (GC).

CCCOC(=O)c1cc(O)c(O)c(O)c1 [n-propyl gallate, Propyl ester of 3,4,5-trihydroxybenzoic acid]
% of inhibition (inhibitor 0.02 mM): 62.9%
% of inhibition (inhibitor 0.04 mM): 74.9%
% of inhibition (inhibitor 0.08 mM): 86.4%
% of inhibition (inhibitor 0.16 mM): 88.7%
% of inhibition (inhibitor 0.32 mM): 100.0%
Inhibitor concentration at which a plateau of inhibition was reached (rat liver microsomes, Table 20): 0.08 to 0.32 mM
